Experimental data from patent US4180564A, “A-38533 Antibiotics and process for production thereof” (Eli Lilly and Company, priority 1978, dated 1979).
Converted amounts (≈) assume the structure as drawn.

Experiments:
P. aeruginosa = test: In vivo antimicrobial activity, P. aeruginosa infection in mice; details: Pseudomonas aeruginosa, sc
Description: The A-38533 antibiotics have shown in vivo antimicrobial activity against experimental bacterial infections. […] Bacteriol. 81, 233-235 (1961)]. The LD50 values in Table XI refer to the infecting challenge of the pathogen, the measure being the number by which the LD50 (ip) of the infecting organism is multiplied.

Pseudomonas aeruginosa = test: In vitro activity, standard agar-dilution test (MIC); type: cell-based
Description: The A-38533 antibiotics inhibit the growth of certain gram-negative pathogenic organisms, particularly Pseudomonas species. The minimal inhibitory concentrations (MIC's) at which the A-38533 factors A1, A2, B and C inhibit various strains of Pseudomonas aeruginosa and Neisseria gonorrhea, as determined by standard agar-dilution tests, are summarized in Table X.

SMILES | ED50 (P. aeruginosa; Test A, P. aeruginosa X239, SC, ×3 doses, challenge 76 × LD50 (ip)) [mg/kg] | ED50 (P. aeruginosa; Test B, P. aeruginosa 24J, ×3 doses, challenge 7.6 × LD50 (ip)) [mg/kg] | ED50 (P. aeruginosa; Test C, P. aeruginosa 24J, ×3 doses, challenge 21.5 × LD50 (ip)) [mg/kg] | MIC (Pseudomonas aeruginosa; strain 4276) [µg/mL] | MIC (Pseudomonas aeruginosa; strain PA103) [µg/mL] | MIC (Pseudomonas aeruginosa; strain PI23) [µg/mL] | MIC (Pseudomonas aeruginosa; strain PS9) [µg/mL] | MIC (Pseudomonas aeruginosa; strain PS15) [µg/mL] | MIC (Pseudomonas aeruginosa; strain PS25) [µg/mL] | MIC (Pseudomonas aeruginosa; strain X48) [µg/mL] | MIC (Pseudomonas aeruginosa; strain X239) [µg/mL] | MIC (Pseudomonas aeruginosa; strain X528) [µg/mL] | ED50 (P. aeruginosa; Test A, P. aeruginosa X239, SC, ×2 doses, challenge 76 × LD50 (ip)) [mg/kg] | ED50 (P. aeruginosa; Test B, P. aeruginosa 24J, ×2 doses, challenge 7.6 × LD50 (ip)) [mg/kg] | ED50 (P. aeruginosa; Test C, P. aeruginosa 24J, ×2 doses, challenge 21.5 × LD50 (ip)) [mg/kg]
CC1(C)S[C@@H]2[C@H](NC(=O)C(C(=O)O)c3ccccc3)C(=O)N2[C@H]1C(=O)O (stereo partly drawn) [Carbenicillin] | 29.3 | 31.9 | 57.5 | 128 (≈ 338 µM) | 32 (≈ 84.6 µM) | 32 (≈ 84.6 µM) | 32 (≈ 84.6 µM) | 16 (≈ 42.3 µM) | 64 (≈ 169 µM) | 16 (≈ 42.3 µM) | 32 (≈ 84.6 µM) | 16 (≈ 42.3 µM) | – | – | –
NC[C@H]1O[C@H](O[C@H]2[C@H](O)[C@@H](O[C@H]3O[C@H](CO)[C@@H](O)[C@H](N)[C@H]3O)[C@H](N)C[C@@H]2N)[C@H](N)C[C@@H]1O [Tobramycin] | – | – | – | – | – | – | – | – | – | – | – | – | 0.4 | 0.4 | 0.6
